Test results reported in publication PMC12926044, “Nootropic benzothiazoles promote dendritic spine formation by targeting fascin-1” (The Journal of Biological Chemistry, 2025).
Like-named read-outs stand apart in the source and are kept apart here.

Target: T1, fascin-1 (Homo sapiens, UniProt Q16658)
T1 construct: gene FSCN1; recombinant, E. coli BL21(DE3), pGEX-5X-2 GST fusion, GST cut off with thrombin; monomer
Assay: isothermal titration calorimetry
Format: binding

Kd (read-out: Kd) [µM] | SMILES | Kd (50 mM Hepes pH 7.5, 150 mM NaCl, 25 °C, proposed site 2)
~5 | Cc1ccc2nc(-c3ccc(NCCOCCOCCOCCOCCOCCO)cc3)sc2c1 [BTA-EG6] | –
– | O=C(Nc1nn(Cc2ccc(C(F)(F)F)cc2)c2ccccc12)c1ccco1 [G2] | Kd values of G2 to WT fascin-1 and seven fascin-1 mutant proteins
